What is called EC50 is the concentration at which the effect is half-maximal. A low value points to a more potent agent.

For 1 compound, EC50 results are on record in paper PMC4830392 (Biochemical pharmacology, 2015).

The target in the assay is OXE receptor (Felis catus, UniProt A0ABI7XKF2). Kind of assay: actin polymerization. Format: cell-based.
Sequence of OXE receptor (A0ABI7XKF2 1-379): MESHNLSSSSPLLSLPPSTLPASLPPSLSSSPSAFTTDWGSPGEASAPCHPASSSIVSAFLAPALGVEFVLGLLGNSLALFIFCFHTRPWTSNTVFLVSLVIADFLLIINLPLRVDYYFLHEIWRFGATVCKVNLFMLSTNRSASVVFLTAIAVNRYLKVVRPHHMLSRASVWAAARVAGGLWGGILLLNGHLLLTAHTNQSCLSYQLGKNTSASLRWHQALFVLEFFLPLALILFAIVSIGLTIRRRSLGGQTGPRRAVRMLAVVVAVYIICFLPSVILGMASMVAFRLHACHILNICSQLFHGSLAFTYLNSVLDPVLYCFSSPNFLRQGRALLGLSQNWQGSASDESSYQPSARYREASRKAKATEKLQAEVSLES

`CCCCC/C=C\C/C=C\C/C=C\C=C\C(=O)CCCC(=O)O` [5-oxo-ETE, 5-oxo-6E,8Z,11Z,14Z-eicosatetraenoic acid] returned an EC50 of 0.72 nM.
